Results taken from PMC7840129, “Structural basis for heme-dependent NCoR binding to the transcriptional repressor REV-ERBβ” (Science Advances, 2021).

Assays:
heme-bound REV-ERBβ LBD = target: T1, heme-bound REV-ERBβ LBD (Homo sapiens, UniProt Q14995); assay: ITC, NCoR ID peptides with heme-bound REV-ERBβ LBD; type: binding; settings: for TΔS: pH 7.4, T constant at 25°C; for thermodynamic profile of peptide binding (in words), + heme: heme-bound LBD; for effect of heme on LBD affinity for peptide (in words): heme-bound vs apo LBD
T1 construct: The human REV-ERBβ LBD (residues 381 to 579) was previously cloned; 6xHis with 3C protease cleavage site (N, cleaved yes); made in house; host or cells: E. coli BL21(DE3)
T1 sequence (Q14995 381-579): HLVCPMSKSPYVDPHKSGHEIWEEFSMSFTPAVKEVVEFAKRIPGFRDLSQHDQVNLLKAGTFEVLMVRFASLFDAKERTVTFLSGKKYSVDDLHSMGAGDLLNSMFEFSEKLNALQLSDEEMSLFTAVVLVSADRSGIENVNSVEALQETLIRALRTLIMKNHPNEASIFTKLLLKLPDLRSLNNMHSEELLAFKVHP
Protocol: NCoR RID mutants were generated by site-directed mutagenesis: The ID1 CoRNR box motif was mutated from [sequence] to [sequence] (ΔID1 and ΔID1ΔID2), and the ID2 CoRNR box motif was mutated from LEDIIRKAL to TEDTTRKAL (ΔID2 and ΔID1ΔID2), as these mutations were previously reported to disrupt CoRNR box binding ([10], [30]). Heme (Sigma-Aldrich, no. 51280) was prepared either as a 1 mM stock in dimethyl sulfoxide (DMSO) stored at 4°C or 50 mM stock in 0.2 M NaOH (solutions prepared in 0.2 M NaOH were always made fresh immediately before the experiment), where indicated. […] Human embryonic kidney (HEK) 293T cells (American Type Culture Collection, no. CRL-11268) were cultured in Dulbecco’s modified eagle medium (DMEM) supplemented with 10% fetal bovine serum, 2 mM L-glutamine, and 1% penicillin-streptomycin at 37°C and 5% CO2 under standard culture conditions. The pcDNA3.1^+ expression vector containing full-length human REV-ERBβ ([31]) and the pGL3-Bmal1-luciferase construct containing the Bmal1 promoter (−816 to +99 of the mouse Bmal1 promoter region) were used in HEK293T cell transfections. Site-directed mutagenesis was performed to mutate the proximal RORE (pRORE mutant), distal RORE (dRORE mutant), or both (p/dRORE mutant) in the pGL3-Bmal1-luciferase construct based on a previous study ([6]) where the ROREs were mutated to disrupt REV-ERBα activity.
Expression was performed using auto-induction media: Cells were grown at 37°C for 5 hours, 30°C for 1 hour, and 18°C for 16 hours before harvesting by centrifugation. Pellets were resuspended in potassium phosphate lysis buffer [40 mM potassium phosphate (pH 7.4), 500 mM KCl, 15 mM imidazole, and 1 mM dithiothreitol (DTT)] supplemented with leupeptin, pepstatin A, lysozyme, and deoxyribonuclease (DNase) I and sonicated on ice. […] A 5-ml aliquot of 6xHis-tagged protein was purified by size exclusion chromatography using a Superdex 75 column equilibrated in time-resolved fluorescence energy transfer (TR-FRET) assay buffer [20 mM potassium phosphate (pH 7.4), 50 mM KCl, and 0.5 mM EDTA]; purified aliquots were stored at −80°C for TR-FRET assays. To cleave the 6xHis tag from the remaining protein, it was incubated overnight with 3C protease (generated in-house) via dialysis; then, protein was reloaded onto the HisTrap columns, and the flow-through was collected. Last, aggregates were removed by size exclusion chromatography using a Superdex 75 column and Hepes gel filtration buffer [20 mM Hepes (pH 7.4), 50 mM KCl, and 0.5 mM EDTA]. Greater than 95% purity was confirmed by SDS-PAGE. Protein was aliquoted and stored at −80°C.
ITC experiments were performed using a MicroCal iTC200. All experiments were solvent-matched and contained 0.1% DMSO (peptide vehicle) and 0.2% 0.2 M solution of NaOH (heme vehicle) final concentrations.
LBD in the syringe was titrated into ID peptide in the sample cell at 25°C with a 60-s delay between injections (2-μl intervals) with a mixing speed of 1200 rpm for a total of 20 injections (or 2 molar equivalents of LBD), unless otherwise noted below.

[1] = tested on: apo 15N-labeled REV-ERBβ LBD; assay: NMR structural footprinting, 2D [1H,15N]-TROSY-HSQC titration, apo LBD; type: binding, human; settings: apo LBD (200 μM), 298 K, 20 mM Hepes pH 7.4, 50 mM NaCl, 0.5 mM EDTA
From the text: To support our ITC results, we performed solution NMR structural footprinting by titrating NCoR ID1 or ID2 peptide into ^15N-labeled REV-ERBβ LBD. For this analysis, we used backbone NMR chemical shift assignments that we previously reported for apo LBD ([18]) and collected three-dimensional (3D) NMR data to obtain backbone NMR chemical shift assignments for heme-bound LBD (fig. S4). […] To qualitatively assess the strength of each interaction, we analyzed the exchange regime of NMR chemical shift changes on the NMR time scale. […]
To generate heme-bound protein, 1.25 molar equivalents of heme prepared in 0.2 M NaOH as a 50 mM stock were added to ^15N-labeled REV-ERBβ LBD (200 μM) or ^2H-,^15N-,^13C-labeled REV-ERBβ LBD (1 mM) in Hepes buffer [20 mM Hepes (pH 7.4), 50 mM NaCl, and 0.5 mM EDTA]. NMR data were collected at 298 K on a Bruker 700-MHz NMR system equipped with a QCI CryoProbe, processed using NMRFx ([40]), and analyzed using NMRViewJ ([41]). […] 2D [^1H,^15N]-TROSY-HSQC data were collected for heme-bound ^15N-labeled REV-ERBβ LBD at 298 K with addition of NCoR ID1 or ID2 peptides prepared as 50 mM stock in DMSO and analyzed in NMRViewJ. […]

[2] = +Heme LBD, pH 7.4, 25°C, 95% CI

Molecule | ΔG, free energy of binding (heme-bound REV-ERBβ LBD; [2]) | ΔH, enthalpy of binding (heme-bound REV-ERBβ LBD; [2]) | TΔS (heme-bound REV-ERBβ LBD; +Heme LBD, 95% CI) | thermodynamic profile of peptide binding (in words), + heme (heme-bound REV-ERBβ LBD) | effect of heme on LBD affinity for peptide (in words) (heme-bound REV-ERBβ LBD) | NMR exchange regime on peptide titration [1]
Ac-RTHRLITLADHICQIITQDFARN-NH2 [NCoR ID1 peptide] | -7.7 kcal/mol | 1.7 kcal/mol | 9.3 kcal/mol | entropically driven and endothermic | decreased LBD affinity | slow
CC[C@H](C)[C@H](NC(=O)[C@H](CC(=O)O)NC(=O)[C@H](CCC(=O)O)NC(=O)[C@H](CC(C)C)NC(=O)CNC(=O)[C@H](CC(C)C)NC(=O)[C@H](CC(N)=O)NC(=O)[C@H](CO)NC(=O)[C@H](C)NC(=O)[C@@H]1CCCN1C(=O)[C@H](CC(=O)O)NC(C)=O)C(=O)N[C@H](C(=O)N[C@@H](CCCNC(=N)N)C(=O)N[C@@H](CCCCN)C(=O)N[C@@H](C)C(=O)N[C@@H](CC(C)C)C(=O)N[C@@H](CCSC)C(=O)NCC(=O)N[C@@H](CO)C(=O)N[C@@H](Cc1ccccc1)C(=O)N[C@@H](CC(=O)O)C(=O)N[C@@H](CC(=O)O)C(=O)N[C@@H](CCCCN)C(N)=O)[C@@H](C)CC [NCoR ID2 peptide] | – | 3.0 kcal/mol | 10.7 kcal/mol | entropically driven and endothermic | increased LBD affinity | fast
